# Measured values as given in US20230023770A1, “Preparation of Drug for Treating Alzheimer's Disease (AD)” (Plantarx Limited, priority 2019, published 2023).
# Entries after “also recorded” stand apart in the source; their conditions may differ.
# Experiments:
# Aβ oligomer-treated mice [1] = assay: Morris water maze test (spatial cognition); format: in vivo, ICR mice; conditions: acyclovir 500 mg/kg, DXMT 2 mg/kg, donepezil 2.5 mg/kg; for time in the target area compared with the Aβ group: probe trial, platform removed, 90 sec
# Protocol: (§1) The acyclovir, DXMT and donepezil were dissolved in water.
# (§2) Mice recover for 3 d without any experiments.
# The spatial memory is assessed with the Morris water maze test^10. The Morris water maze is a circular pool (110 cm in diameter) filled with water at a temperature of 23±2° C., and has a platform. Except on a last day, the platform is always placed in a center of a northwest quadrant. Swimming tracks are recorded by a video recorder connected to a computer. Each mouse is trained on positioning the platform over a four-day trial, and learning is assessed daily for four consecutive days. The time mice take to enter a hidden platform is measured. On the last day, the platform is removed and the mice are trained to swim for 90 sec for a probe trial. The swimming times are recorded in the four quadrants of the pool. A tendency to appear in the quadrant occupied before the platform indicates a spatial memory ability.
# interleukin-6 (IL-6) = assay: ELISA of IL-6 in mouse hippocampus; format: in vivo, ICR mice; conditions: acyclovir 500 mg/kg, DXMT 2 mg/kg, donepezil 2.5 mg/kg
# Protocol: as §1, §2
# (§3) One day after the Morris water maze test, mice are deeply anesthetized and transcardially perfused with an ice-cold saline. The brain is quickly dissected. Hippocampal proteins are extracted and stored at −80° C. prior to use in a Western blotting assay (4 mice per group) and an enzyme-linked immunosorbent assay (ELISA, 3 mice per group). Intact brain tissues (3 mice per group) are stored in a formalin solution at […] prior to staining using immunohistochemistry (IHC).
# Determination was conducted on concentrations of interleukin-6 (IL-6) and tumor necrosis factor-α (TNF-α) in mouse hippocampus using freshly prepared brain tissues. Brain samples are homogenized in a 0.1M phosphate buffered saline. A resulting brain extract is centrifuged to 2,000 g at 4° C. for 15 min. Concentrations of IL-6 and TNF-α are determined with an ELISA kit (Excell Bio, Shanghai, China) according to the manufacturer's protocol. An absorbance is read.
# IL-17 = assay: Western blotting of IL-17 in mouse hippocampus; format: in vivo, ICR mice; conditions: acyclovir 500 mg/kg, DXMT 2 mg/kg, donepezil 2.5 mg/kg
# Protocol: as §1, §2, §3
# (§4) The Western blotting assay is conducted as previously described^11. Briefly, the brain tissues from hippocampus are extracted in a lysis buffer for 1 min and centrifuged at 16,000 g for 10 min. Protein levels in a supernatant are estimated by a Bradford analysis, the proteins are separated on an SDS-polyacrylamide gel, and electrotransferred to a polyvinylidene fluoride membrane. After 2 h of incubation with 5% skim milk in TBST, incubation is conducted for 12 h with corresponding antibodies Tau, IL-17 (Santa Cruz Biotechnology, Shanghai, China), pSer396-Tau, PSD-95, and β-actin (Cell Signaling Technology, Inc., Beverly, Mass., USA). […] The data is expressed as a ratio of an optical density (OD) compared to the control and a statistical analysis.
# [2] = tested on: glial fibrillary acidic protein (GFAP); assay: IHC staining of GFAP (astrocyte activation) in hippocampus; format: in vivo, ICR mice; conditions: acyclovir 500 mg/kg, DXMT 2 mg/kg, donepezil 2.5 mg/kg
# Protocol: as §1, §2, §3
# (§5) IHC staining is conducted according to previously reported protocols^11. Briefly, after the Morris water maze test, the brains are dissected and incubated with 4% paraformaldehyde for 1 d. Brain specimens are dehydrated, paraffin-embedded, and sliced into 4-micron slices. Hippocampal sections are dewaxed and rehydrated. Treatment with 3% H2O2 is conducted for 10 min to inhibit a cellular peroxidase activity. Sections are incubated overnight at 4° C. with primary antibodies to a CD45 antigen and a glial fibrillary acidic protein (GFAP). […] The sections are labeled with DAB and analyzed colorimetrically. A mean OD of the area is analyzed using Image Pro 6.0 (Media Cybernetics Inc., MD, USA). […] Positive area and OD are determined by measurements on randomly selected microscope fields on each slide. […]
# CD45 = assay: IHC staining of CD45 (microglia activation) in hippocampus; format: in vivo, ICR mice; conditions: acyclovir 500 mg/kg, DXMT 2 mg/kg
# Protocol: as §1, §2, §3, §5
# PSD-95 = assay: Western blotting of PSD-95 in mouse hippocampus; format: in vivo, ICR mice; conditions: acyclovir 500 mg/kg, DXMT 2 mg/kg, donepezil 2.5 mg/kg
# Protocol: as §1, §2, §3, §4
# pSer396-Tau = assay: Western blotting of pTau in mouse hippocampus; format: in vivo, ICR mice; conditions: acyclovir 500 mg/kg, DXMT 2 mg/kg
# Protocol: as §1, §2, §3, §4
# HSV-1-infected cells = conditions: cited from earlier work
# Aβ oligomer-treated mice [3] = assay: Open field experiment (motor activity); conditions: day 17, 5 min, acyclovir 500 mg/kg, DXMT 2 mg/kg
# Protocol: Zhejiang Academy of Medical Sciences has provided ICR mice weighing about 25 g. The mice are subjected to a 12-h illumination/darkness cycle at 22±2° C. (humidity: 50±10%) and are provided with water and standard food. The acyclovir, DXMT and donepezil were dissolved in water. The mice are randomly divided into 6 groups with 10 mice in each group, including: a control group, an Aβ oligomer group, an Aβ+500 mg/kg acyclovir group, an Aβ+2 mg/kg DXMT group, an Aβ+500 mg/kg acyclovir, 2 mg/kg DXMT group, and an Aβ+2.5 mg/kg donepezil group. The mice are anesthetized by intraperitoneal injection of sodium pentobarbital (50 mg/kg) and placed in a stereotaxic apparatus (RWD Life Science Co., Ltd., Shenzhen, China).
# On day 1, the Aβ oligomer was injected into a bilateral ventricle region. A micro-dose is injected (1 μl/side) over 5 min. To reduce backflow, the cannula is left in place for 5 min. […] Mice recover for 3 d without any experiments. […]
# To analyze a motor activity and exploratory behavior, the mice are housed in an open field (50 cm×50 cm×39 cm) with white plywood walls and brown floors. […] The number of crossed lines of four paws and the number of feedings are recorded using a hand-held counter and stopwatch, which are used to mark the motor activity and exploratory behavior. […]
# [4] = Body weight of Aβ oligomer-treated mice during treatment; format: in vivo, ICR mice; conditions: last day of experiment, gavage 13 d twice a day, acyclovir 500 mg/kg, DXMT 2 mg/kg, donepezil 2.5 mg/kg
# Protocol: as §1, §2
# Briefly, on day 1, the Aβ oligomers are injected into both sides of the mouse hippocampus. The mice are let recover for 3 d. On days 4 to 16, mice are treated differently for 13 d. On day 17, a motor function of the mice is examined by the open field test. On days 18-24, the spatial cognition is tested by the Morris water maze test. On day 25, the mice are sacrificed for biochemical studies.
# Digestive disturbance is one of the common adverse effects of acyclovir. Long-term treatment with acyclovir may cause indigestion and malnutrition, leading to weight loss. Therefore, the body weight of the mice is measured every 2 d to 3 d during the experiment.
Compound,time in the target area compared with the Aβ group (Aβ oligomer-treated mice [1]),Aβ-induced increase in IL-6 expression compared with the Aβ group (interleukin-6 (IL-6)),Aβ-induced increase in IL-17 expression compared with the Aβ group (IL-17),Aβ-induced increase in the mean OD of GFAP compared with the Aβ group [2],Aβ-induced increase in CD45 mean OD compared with the Aβ group (CD45),expression of PSD-95 compared with the Aβ group (PSD-95),Aβ-induced increase in pTau expression compared with the Aβ group (pSer396-Tau),inhibition of aberrant tau phosphorylation (HSV-1-infected cells) [%],reduction of HSV-1-induced Aβ accumulation (HSV-1-infected cells) [%],"motor function (number of standing, number of crossing lines) (Aβ oligomer-treated mice [3])",body weight compared with the control group [4],"time to find the hidden platform (latency) compared with the Aβ group (Aβ oligomer-treated mice [1]; last day of training, gavage 13 d)"
Nc1nc2c(ncn2COCCO)c(=O)[nH]1 [acyclovir],do not show a better performance,does not significantly reduce IL-6 production,cannot reduce the expression of IL-17,significantly reduce; also recorded: neither acyclovir nor donepezil treatment can change,can inhibit the activation of microglia,does not alter the expression of PSD-95,significantly attenuate,~100,70,do not significantly alter the motor function,,
COc1cc2c(cc1OC)C(=O)C(CC1CCN(Cc3ccccc3)CC1)C2 (centres unmarked) [donepezil],significantly longer,does not alter the expression of IL-6,does not alter the expression of IL-17,neither acyclovir nor donepezil treatment can change,,does not alter the expression of PSD-95,,,,,does not change the body weight,significantly shorter
